Measurements as given in patent publication US10233209B2, “Inhibitors of the farnesoid x receptor and uses in medicine” (The United States of America, as represented by the …, priority 2013, dated 2019).
“Also recorded” adds a separate entry of the source.

Legend:
primary hepatocytes = experiment: ceramide treatment of cultured primary hepatocytes; format: cell-based, mouse
Experimental: Primary hepatocytes from 6-week-old C57BL/6N mice were obtained by collagenase 1 (Invitrogen, Carlsbad, Calif.) perfusion. The cells were purified by 45% Percoll (Sigma, St. Louis, Mo.) density centrifugation and cultured in DMEM (Invitrogen, Carlsbad, Calif.) with 10% fetal bovine serum and 1% Insulin-Transferrin-Selenium-Ethanolamine (ITS-X) (Invitrogen, Carlsbad, Calif.). The viability of hepatocytes was determined using trypan blue dye exclusion, and those with higher than 85% viability were used. The medium was changed to DMEM with 1% fetal bovine serum after culturing for 4 hours. After starvation for 4 hours, the cells were exposed to ceramide. At the prescribed time points, cells were harvested and subjected to qPCR analysis and TG content detection.
The mucosa of intestine was gently scraped and liver was taken and both were flash frozen in liquid nitrogen and stored at −80° C. until RNA was prepared. RNA was extracted from frozen intestine and liver using TRIzol reagent (Invitrogen, Carlsbad, Calif.). cDNA was synthesized from 1 μg total RNA using Superscript II reverse transcriptase (Invitrogen, Carlsbad, Calif.). qPCR primers were designed with qPrimerDepot. Measured mRNA levels were normalized to those of 18S ribosomal RNA and expressed as fold change relative to those of control group.
Liver whole-cell or nuclear extracts were prepared. Membranes were incubated with antibodies against FXR (Santa Cruz Biotechnology, Inc., Santa Cruz, Calif.), SREBP1 (BD Biosciences, San Jose, Calif.), and CIDEA (Abcam, Cambridge, Mass.). The signals obtained were normalized to β-ACTIN (Abcam) for whole cell extract and LAMIN A/C (Santa Cruz) for nuclear extracts.

FXR [1] = target: T1, FXR (Mus musculus, UniProt Q60641); experiment: PGL4-Shp-TK luciferase assay in primary hepatocytes; format: cell-based; settings: primary hepatocytes from Fxr^+/+ mice; 100 μM TCA
T1 construct: Primary hepatocytes from Fxr^+/+ and Fxr^−/− mice were transfected with PGL4-Shp-TK firefly luciferase construct and the control plasmid phRL-SV40; endogenous in cells; host or cells: primary mouse hepatocytes (Fxr+/+; Fxr-/- as negative control)
T1 sequence (Q60641 1-488): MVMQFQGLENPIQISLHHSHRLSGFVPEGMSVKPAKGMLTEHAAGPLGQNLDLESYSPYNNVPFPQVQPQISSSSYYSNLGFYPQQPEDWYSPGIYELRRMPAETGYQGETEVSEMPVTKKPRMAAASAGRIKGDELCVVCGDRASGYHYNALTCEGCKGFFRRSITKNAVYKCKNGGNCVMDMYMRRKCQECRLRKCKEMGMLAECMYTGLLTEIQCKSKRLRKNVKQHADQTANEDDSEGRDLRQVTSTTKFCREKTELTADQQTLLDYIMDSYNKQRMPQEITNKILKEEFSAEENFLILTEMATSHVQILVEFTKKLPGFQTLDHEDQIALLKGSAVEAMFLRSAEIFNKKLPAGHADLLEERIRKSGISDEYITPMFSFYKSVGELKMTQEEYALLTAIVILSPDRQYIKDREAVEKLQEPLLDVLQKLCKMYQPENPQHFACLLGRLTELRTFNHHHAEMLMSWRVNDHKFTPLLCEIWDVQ
Text: (§1) The PGL4-Shp-TK firefly luciferase construct and human Fxr expression plasmid were provided by Grace L. Guo of Rutgers University. The human Asbt expression plasmid was provided by Paul A. Dawson of Wake Forest University School of Medicine. The plasmids were transfected into cells using X-[…]™ HP DNA Transfection Reagent (Roche). The cells were lysed, and luciferase activities measured with a DUAL-LUCIFERASE™ assay kit (Promega). Firefly luciferase activity was normalized to Renilla luciferase activity.
Primary hepatocytes from Fxr^+/+ and Fxr^−/− mice were transfected with PGL4-Shp-TK firefly luciferase construct and the control plasmid phRL-SV40. After 24 h, the cells were treated with 100 μM taurocholic acid (TCA), TβMCA, or TβMCA with TCA. The cells were lysed, and luciferase activities measured as describe herein. The results are depicted in FIG. 1.

human FXR [2] = target: T2, human FXR (Homo sapiens, UniProt Q96RI1); experiment: PGL4-Shp-TK luciferase assay in Caco-2 cells transfected with human FXR and human ASBT; format: cell-based; settings: 100 μM TCA
T2 construct: expressed in transfected cells; host or cells: Caco-2
T2 sequence (Q96RI1 1-486): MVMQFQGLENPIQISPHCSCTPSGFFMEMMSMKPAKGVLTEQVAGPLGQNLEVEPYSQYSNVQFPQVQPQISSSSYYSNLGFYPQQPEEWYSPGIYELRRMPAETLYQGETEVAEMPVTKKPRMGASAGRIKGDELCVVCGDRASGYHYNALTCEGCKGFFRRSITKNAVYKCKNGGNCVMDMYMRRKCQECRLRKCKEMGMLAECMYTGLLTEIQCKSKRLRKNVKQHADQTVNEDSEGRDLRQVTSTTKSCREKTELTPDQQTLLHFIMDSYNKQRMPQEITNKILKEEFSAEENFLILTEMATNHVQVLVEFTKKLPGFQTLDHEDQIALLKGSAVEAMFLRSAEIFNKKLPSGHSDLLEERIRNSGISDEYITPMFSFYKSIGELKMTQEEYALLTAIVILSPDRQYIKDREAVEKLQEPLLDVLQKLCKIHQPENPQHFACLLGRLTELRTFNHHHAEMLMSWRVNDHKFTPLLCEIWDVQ
Text: as §1
Caco-2 cells were transfected with PGL4-Shp-TK firefly luciferase construct, the control plasmid phRL-SV40, and human FXR and human ASBT expression plasmids. After 24 h, the cells were treated with 100 μM TCA, TβMCA, or TβMCA with […] 100 μM TCA. The cells were lysed, and luciferase activities measured as describe herein. The results are depicted in FIG. 2.

human FXR [3] = target: T3, human FXR (Homo sapiens, UniProt Q96RI1); experiment: human FXR competition assay (GAL4-FXR chimeric receptor luciferase, HEK293T); format: cell-based; settings: in the presence of GW4064
T3 construct: expressed in transfected cells; host or cells: HEK293T
T3 sequence (Q96RI1 262-486 limits assumed): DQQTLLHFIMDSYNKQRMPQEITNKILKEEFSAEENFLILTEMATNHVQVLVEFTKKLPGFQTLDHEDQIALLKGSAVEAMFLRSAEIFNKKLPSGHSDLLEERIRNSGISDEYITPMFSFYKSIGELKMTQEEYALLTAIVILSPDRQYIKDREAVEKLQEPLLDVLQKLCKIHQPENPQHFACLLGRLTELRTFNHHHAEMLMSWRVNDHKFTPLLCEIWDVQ
Experimental: Luciferase detection was conducted using the Dual Luciferase Reporter Assay kit (Promega Corp., Madison, Wis.) and a Tecan GeniosPro luminescent plate reader (Research Triangle Park, N.C.).
Luciferase detection was conducted using the Dual Luciferase Reporter Assay kit (Promega; Madison, Wis.) and a Tecan GeniosPro™ luminescent plate reader (Research Triangle Park, N.C.).

FXR [4] = target: T1, FXR; experiment: FXR signaling in the ileum (Shp, Fgf15 mRNA); format: in vivo; settings: mice treated with antibiotic on HFD for three days; TCA and TβMCA 400 mg/kg each, oral
Text: High-fat diet (HFD) (60% kcal consisting of fat) was purchased from Bioserv. […] Fxr^fl/fl and Fxr^ΔIE (Kim et al., J. Lipid Res. 48:2664-2672, 2007) mice were backcrossed with C57BL/6N mice for over 10 generations. For the antibiotic (the combination of bacitracin, neomycin, and streptomycin) study, male C57BL/6N mice from 6 weeks of age were fed a high-fat diet (“HFD) and administered 0.1% (w/v) of each compound (the combination of bacitracin, neomycin, and streptomycin) in the drinking water. […] For TβMCA in vivo, male C57BL/6N mice from 6 weeks of age were fed a HFD and treated with the antibiotics (0.1% of each compound of bacitracin, neomycin, and streptomycin combination) for 3 days. […] Cumulative food intake and TEEbal were measured for 1 week in vehicle and Gly-MCA-treated mice from 6 to 7 weeks of HFD. TEEbal was measured as previously described (Ravussin et al., Int. J. Obesity 37:399-403, 2013).
The mucosa of intestine was gently scraped and liver was taken and both were flash frozen in liquid nitrogen and stored at −80° C. until RNA was prepared. […] Measured mRNA levels were normalized to those of 18S ribosomal RNA and expressed as fold change relative to those of control group.

ceramide
mRNA of fatty acid synthesis and TG formation genes (Srebp1c, Cidea, Elovl6, Dgat2) (primary hepatocytes; 16 hours, 2, 5, 10 μM ceramide): significantly upregulated
mRNA of fatty acid β-oxidation genes (Cpt1, Acox1, Ehhadh, Acaa1a) (primary hepatocytes; 16 hours, 2, 5, 10 μM ceramide): not affected
triglyceride contents in primary hepatocytes (primary hepatocytes; 24 hours, 2, 5, 10 μM ceramide): significantly increased triglyceride contents
protein levels of nuclear SREBP1-N and CIDEA (primary hepatocytes; ceramide 2 μM and 10 μM, 24 hours): significantly induced

C[C@H](CCC(=O)NCCS(=O)(=O)O)[C@H]1CC[C@H]2[C@@H]3[C@@H](O)[C@@H](O)[C@@H]4C[C@H](O)CC[C@]4(C)[C@H]3CC[C@]12C [TβMCA, tauro-β-muricholic acid]
FXR activation by TCA (luciferase activity) (FXR [1]): antagonizes farnesoid X receptor (FXR) activation; also recorded: antagonized FXR activation by TCA
FXR activation by TCA (luciferase activity) (human FXR [2]): antagonizes FXR activation; also recorded: antagonized FXR activation by TCA
FXR activity induced by synthetic agonist GW4064 (luciferase, normalized to Renilla) (human FXR [3]): inhibited FXR
Shp and Fgf15 induction by the FXR agonist TCA in the ileum (FXR [4]): significantly blunted
